We go through one substance from publication PMC5640650, “NatD promotes lung cancer progression by preventing histone H4 serine phosphorylation to activate Slug expression” (Nature Communications, 2017).

The test system of one data set is CK2α. Kind of data set: CK2α localization by confocal immunofluorescence / western blot, H1299 cells. The class given is cell-based, human. To be noted: NatD knockdown H1299 cells. From the text: Fig. 7 Downregulation of Nt-acetylation of histone H4 facilitates nuclear accumulation of CK2α and its binding to histone H4 in lung cancer cells. a Representative confocal scanning images of CK2α localization in Scr and H1299 cells (left panel). The staining intensity of CK2α was quantified by software ImageJ from NIH (right diagram). Scale bars, 5 μm. […] Equal peptide biotinylated on C terminus is shown by dot blot analysis with streptavidin (middle panel). […] IgG served as a negative control. Results are shown as mean ± s.d. from three independent experiments; two-tailed Student’s t-test, **P < 0.01 compared with the indicated control. g Quantitative real-time PCR analysis of mRNA levels of CK2α and Slug normalized to GAPDH in Scr and NatD-KD H1299 cells in the absence or presence of siRNA to CK2α. NC, siRNA mimics negative control. […]
For immunofluorescence assays, cells were fixed with 4% formaldehyde for 5 min at room temperature. […] Sub-cellular distribution of CK2α was analyzed by confocal scanning microscopy (Olympus FV10i). The relative intracellular distribution of CK2α in each experimental sample was calculated as the nuclear to total (cytoplasmic + nuclear) ratio by measuring the intensity of the signals in each cellular compartment with the aid of ImageJ software (NIH). […]
For orientation: In western blotting, separated proteins are transferred to a membrane and probed.

A further data set relates to Slug promoter. Kind of data set: Slug promoter luciferase reporter assay, H1299 cells. The class given is cell-based, human. To be noted: 1155-bp Slug promoter in pGL3-basic, beta-galactosidase normalized. Here is the method: Response to the reviewers' comments:
Q1. In relation to Query 11 where Slug promoter analyses were requested to functionally test the consequences of epigenetic changes, the authors argue “it is less […]
promoter activity in cytoplasm where functional nucleosomes (composed of histone and DNA) are not formed”. I disagree with the authors’ response since it would invalidate all promoter assays performed in many different situations in which the action of “nuclear” transcription factors is analyzed with exogenous promoters that need to be translocated to the nucleus for functional activity. Thus, although I agree that the epigenetic changes might not be easily reproduced in the exogenous promoters, the authors should made the effort to perform this requested experimental […]
We agree with the reviewer that the experiment should be performed. Therefore, we cloned a 1155-bp Slug promoter fragment [Ref: Morita T et al., J Cell Biol. 2007, 179(5): 1027-1042] into the pGL3-basic luciferase vector (sequence confirmed by DNA sequencing). The activity of Slug promoter in the different situations (control […]
NatD) were analyzed; pSV-beta-Gal plasmid expressing beta-galactosidase was used as the normalization control according to Cold Spring Harbor Protocol [Smale ST.
Beta-galactosidase assay. Cold Spring Harb Protoc 2010: pdb prot5423]. As the […]

Take “NatD-KD2: Human NatD shRNA KD2: 5′-GGTTGAATGTCTCCATTGA-3′, lentiviral (shRNA lentiviral)”: the “CK2α in the cytoplasm (western blot)” value with CK2α is listed as “no detectable levels”. In addition, in the data set on CK2α (more than 30 cells (Scr: about 70%)), the “CK2α localized in the nucleus” value is roughly 100%. In addition, in the data set on Slug promoter, the “Slug promoter luciferase activity” value is given as “no significant changes in luciferase activity”.
